Test results published in patent publication US9822069B2, “Urea derivative or pharmacologically acceptable salt thereof” (KYORIN PHARMACEUTICAL CO. LTD., priority 2013, dated 2017).

What follows are compounds tested against T1, human FPRL1 (Homo sapiens, UniProt P25090) (assay: Measurement test of agonist activity on human FPRL1 (test of calcium mobilization in cell, HEK293 with human FPRL1 and Gα15 expression vectors)). Details: calcium mobilization in HEK293 cells with human FPRL1 and Gα15 expression vectors.
T1 construct: expressed in transfected cells; host or cells: HEK293 (JCRB9068, NIBIO), transient transfection with pCMV-script vectors using Lipofectamine 2000
T1 sequence (P25090 1-351): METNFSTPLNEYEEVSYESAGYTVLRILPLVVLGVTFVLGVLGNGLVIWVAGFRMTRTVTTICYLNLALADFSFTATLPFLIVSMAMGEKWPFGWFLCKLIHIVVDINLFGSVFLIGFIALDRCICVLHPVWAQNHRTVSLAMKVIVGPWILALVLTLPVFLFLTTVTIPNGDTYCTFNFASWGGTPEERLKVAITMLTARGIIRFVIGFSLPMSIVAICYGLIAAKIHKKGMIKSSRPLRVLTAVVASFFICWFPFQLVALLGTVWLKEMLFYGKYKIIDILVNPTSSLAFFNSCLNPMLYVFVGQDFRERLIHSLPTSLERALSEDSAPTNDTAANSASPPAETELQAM
Assay type: cell-based
From the text: Measurement Test of Agonist Activity on Human FPRL1
(1-1) Construction of Human FPRL1 Expression Vector
Human FPRL (SEQ ID NO: 3) was amplified in a PCR reaction from cDNA derived from a monocytic leukemia cell line THP-1 (TIB-202, ATCC) as a template using a forward primer shown in SEQ ID NO: 1, a reverse primer shown in SEQ ID NO: 2, and KOD-plus-ver. 2 (KOD-211, TOYOBO CO., LTD.). The amplified PCR product and pCMV-script vector (212220, STRATAGENE) were digested with Hind III (1060A, Takara Bio Inc.) and XhoI (1094A, Takara Bio Inc.), and the resultant digest was ligated with Ligation high ver. 2 (LGK-201, TOYOBO CO., LTD.). The ligation product was transformed into DH5α (DNA-901, TOYOBO CO., LTD.), cultured on a 100 μg/mL kanamycin-containing LB medium, and purified with HiSpeed Plasmid Maxi Kit (12662, QIAGEN).
(1-2) Construction of Human Gα15 Expression Vector
Human Gα15 (SEQ ID NO: 6) was amplified in a PCR reaction from cDNA derived from a myeloid leukemia cell line HL-60 (CCL-240, ATCC) as a template using a forward primer shown in SEQ ID NO: 4, a reverse primer shown in SEQ ID NO: 5, and KOD-plus-ver. 2. The amplified PCR product and pCMV-script vector were digested with Hind III and XhoI, and the resultant digest was ligated with Ligation high ver. 2. The ligation product was transformed into DH5α, cultured on a 100 μg/mL kanamycin-containing LB medium, and purified with HiSpeed Plasmid Maxi Kit.
(2-1) Method for Culturing and Subculturing HEK293
HEK293 (JCRB9068, NIBIO) was cultured in an incubator at 5% CO2 and 37° C. using DMEM (11885-092, GIBCO) containing 10% FBS and 1× Penicillin-Streptomycin (15140-122, GIBCO). Subculture was carried out as followings: The cells that reached 80 to 90% confluency were washed with PBS(−), separated using 0.25% Trypsin-EDTA (25200-072, GIBCO), centrifuged, re-suspended in a fresh medium, and then seeded in Collagen Type 1 Coated dish (4020-010, IWAKI) at a split ratio of 1:8 (cultured for 3 days).
(2-2) Introduction of Human FPRL1 and Gα15 Expression Vectors
HEK293 that reached 80 to 90% confluency was washed with PBS(−), separated using 0.25% Trypsin-EDTA, centrifuged, and re-suspended in a fresh medium excluding 1× Penicillin-Streptomycin. The cells were inoculated in a Collagen Type 1 coated 6-well plate (4810-010, IWAKI) to 5×10^5 cells/2.5 mL/well and cultured overnight. On the next day, human FPRL1 and Gα15 expression vectors were introduced using Lipofectamine 2000 transfection reagent (11668-019, Life technologies). First, the human FPRL1 and Gα15 expression vectors were diluted with Opti-MEM I Reduced Serum Medium (31985-070, GIBCO) to 2 μg/250 μL/well and Lipofectamine 2000 transfection reagent was diluted with Opti-MEM I Reduced Serum Medium to be 4 μL/250 μL/well. The vectors and reagent were softly diffused, and incubated at room temperature for 5 minutes. The vector solution was mixed with Lipofectamine 2000 transfection reagent in equal amounts. In order to form a composite of the vectors and Lipofectamine 2000 transfection reagent, the mixture was incubated at room temperature for 20 minutes, and added at 500 μL/well to the medium of inoculated cells. The treated cells were cultured for 24 hours, inoculated in Poly-D-Lysine coated 96-well plate (356640, BD Biosciences) at a cell density of 7×10^4 cells/100 μL/well, and cultured for another 24 hours. The resultant cells were used in a measurement test of calcium mobilization in the cells.
(3) Evaluation of Agonist Activity on Human FPRL1 (Test of Calcium Mobilization in Cell)
An appropriate amount of each test compound was first weighed, and dissolved to 10^−2 M by addition of dimethyl sulfoxide (DMSO). […]

Structure (SMILES) | EC50
COc1ccc([C@@H]2CNC(=O)[C@H]2NC(=O)Nc2ccc(F)c(F)c2)cc1 (single isomer, unassigned) [EXAMPLE 1-3, (-)-1-(3,4-difluorophenyl)-3-[(3S*,4R*)-4-(4-methoxyphenyl)-2-oxopyrrolidin-3-yl]urea] | 2.57 nM
COc1ccc([C@@H]2CNC(=O)[C@H]2NC(=O)Nc2ccc(C#N)cc2)cc1 (single isomer, unassigned) [EXAMPLE 1-5, (−)-1-(4-cyanophenyl)-3-[(3S*,4R*)-4-(4-methoxyphenyl)-2-oxopyrrolidin-3-yl]urea] | 2.88 nM
COc1ccc([C@@H]2CN(C)C(=O)[C@H]2NC(=O)Nc2ccc(Cl)cc2)cc1 (single isomer, unassigned) [EXAMPLE 1-6, (−)-1-(4-chlorophenyl)-3-[(3S*,4R*)-4-(4-methoxyphenyl)-1-methyl-2-oxopyrrolidin-3-yl]urea] | 0.2 nM
COc1ccc([C@@H]2CNC(=O)[C@H]2NC(=O)Nc2ccc(F)cc2)cc1F (single isomer, unassigned) [EXAMPLE 1-8, (−)-1-[(3S*,4R*)-4-(3-fluoro-4-methoxyphenyl)-2-oxopyrrolidin-3-yl]-3-(4-fluorophenyl)urea] | 0.9 nM
COc1ccc([C@@H]2CNC(=O)[C@H]2NC(=O)Nc2ccc(F)cc2)c(C)c1 (single isomer, unassigned) [EXAMPLE 1-11, (−)-1-(4-fluorophenyl)-3-[(3S*,4R*)-4-(4-methoxy-2-methylphenyl)-2-oxopyrrolidin-3-yl]urea] | 1.59 nM
COc1cc(F)c([C@@H]2CNC(=O)[C@H]2NC(=O)Nc2ccc(F)cc2)cc1F (single isomer, unassigned) [EXAMPLE 1-13, (−)-1-[(3S*,4R*)-4-(2,5-difluoro-4-methoxyphenyl)-2-oxopyrrolidin-3-yl]-3-(4-fluorophenyl)urea] | 0.15 nM
COc1c(F)cc([C@@H]2CNC(=O)[C@H]2NC(=O)Nc2ccc(F)cc2)cc1F (single isomer, unassigned) [EXAMPLE 1-14, (−)-1-[(3S*,4R*)-4-(3,5-difluoro-4-methoxyphenyl)-2-oxopyrrolidin-3-yl]-3-(4-fluorophenyl)urea] | 4.12 nM
COc1ccc([C@@H]2CNC(=O)[C@H]2NC(=O)Nc2ccc(F)cc2)s1 (single isomer, unassigned) [EXAMPLE 1-19, (−)-1-(4-fluorophenyl)-3-[(3S*,4R*)-4-(5-methoxythiophen-2-yl)-2-oxopyrrolidin-3-yl]urea] | 0.72 nM
CSc1ccc([C@@H]2CNC(=O)[C@H]2NC(=O)Nc2ccc(F)cc2)cc1 (single isomer, unassigned) [EXAMPLE 1-20, (−)-1-(4-fluorophenyl)-3-[(3S*,4R*)-4-(4-methylthiophenyl)-2-oxopyrrolidin-3-yl]urea] | 1.75 nM
COc1ccc(NC(=O)N[C@@H]2C(=O)NC[C@H]2c2c(F)cc(OC)cc2F)cc1 (single isomer, unassigned) [EXAMPLE 1-24, (−)-1-[(3S*,4R*)-4-(2,6-difluoro-4-methoxyphenyl)-2-oxopyrrolidin-3-yl]-3-(4-methoxyphenyl)urea] | 3.2 nM

Other lines, results leading:

EC50 | Structure (SMILES)
0.88 nM | COc1cc(F)c([C@@H]2CN(CCO)C(=O)[C@H]2NC(=O)Nc2ccc(Cl)nc2)c(F)c1 (relative stereo) [Example 24-9, (−)-1-(6-chloropyridin-3-yl)-3-[(3S*,4R*)-4-(2,6-difluoro-4-methoxyphenyl)-1-(2-hydroxyethyl)-2-oxopyrrolidin-3-yl]urea]
1 nM | COc1cc(F)c([C@@H]2CN(CCO)C(=O)[C@H]2NC(=O)Nc2cc3ccccc3s2)c(F)c1 (relative stereo) [Example 24-10, (−)-1-(benzo[b]thiophen-2-yl)-3-[(3S*,4R*)-4-(2,6-difluoro-4-methoxyphenyl)-1-(2-hydroxyethyl)-2-oxopyrrolidin-3-yl]urea]
0.06 nM | CCCN1C[C@@H](c2c(F)cc(OC)cc2F)[C@H](NC(=O)Nc2ccc(F)cc2)C1=O (relative stereo) [Example 24-11, (−)-1-[(3S*,4R*)-4-(2,6-difluoro-4-methoxyphenyl)-2-oxo-1-propylpyrrolidin-3-yl]-3-(4-fluorophenyl)urea]
2.2 nM | COc1cc(F)c([C@@H]2CN(Cc3ccccc3)C(=O)[C@H]2NC(=O)Nc2ccc(F)cc2)c(F)c1 (relative stereo) [Example 24-12, (−)-1-[(3S*,4R*)-1-benzyl-4-(2,6-difluoro-4-methoxyphenyl)-2-oxopyrrolidin-3-yl]-3-(4-fluorophenyl)urea]
0.11 nM | COc1cc(F)c([C@@H]2CN(Cc3cccnc3)C(=O)[C@H]2NC(=O)Nc2ccc(F)cc2)c(F)c1 (relative stereo) [Example 24-13, (−)-1-[(3S*,4R*)-4-(2,6-difluoro-4-methoxyphenyl)-2-oxo-1-(pyridin-3-ylmethyl)pyrrolidin-3-yl]-3-(4-fluorophenyl)urea]
0.12 nM | COc1cc(F)c([C@@H]2CN(CS(C)(=O)=O)C(=O)[C@H]2NC(=O)Nc2ccc(F)cc2)c(F)c1 (relative stereo) [Example 24-14, (−)-1-{(3S*,4R*)-4-(2,6-difluoro-4-methoxyphenyl)-1-[(methylsulfonyl)methyl]-2-oxopyrrolidin-3-yl}-3-(4-fluorophenyl)urea]
0.03 nM | COc1cc(F)c([C@@H]2CN(CS(N)(=O)=O)C(=O)[C@H]2NC(=O)Nc2ccc(F)cc2)c(F)c1 (relative stereo) [Example 24-15, (−)-{(3S*,4R*)-4-(2,6-difluoro-4-methoxyphenyl)-3-[3-(4-fluorophenyl)ureido]-2-oxopyrrolidin-1-yl}methanesulfonamide]
0.15 nM | CCOC(=O)CN1C[C@@H](c2c(F)cc(OC)cc2F)[C@H](NC(=O)Nc2ccc(F)cc2)C1=O (single isomer, unassigned) [EXAMPLE 24-16, (−)-2-{(3S*,4R*)-4-(2,6-difluoro-4-methoxyphenyl)-3-[3-(4-fluorophenyl)ureido]-2-oxopyrrolidin-1-yl}acetic acid ethyl ester]
0.02 nM | COc1cc(F)c([C@@H]2CN(Cc3ncc(C)o3)C(=O)[C@H]2NC(=O)Nc2ccc(F)cc2)c(F)c1 (single isomer, unassigned) [EXAMPLE 24-17, (−)-1-{(3S*,4R*)-4-(2,6-difluoro-4-methoxyphenyl)-1-[(5-methyloxazol-2-yl)methyl]-2-oxopyrrolidin-3-yl}-3-(4-fluorophenyl)urea]
0.03 nM | COc1cc(F)c([C@@H]2CN(Cc3nnc(C)o3)C(=O)[C@H]2NC(=O)Nc2ccc(F)cc2)c(F)c1 (single isomer, unassigned) [EXAMPLE 24-18, (−)-1-{(3S*,4R*)-4-(2,6-difluoro-4-methoxyphenyl)-1-[(5-methyl-1,3,4-oxadiazol-2-yl)methyl]-2-oxopyrrolidin-3-yl}-3-(4-fluorophenyl)urea]
